This note sets out measurements from patent US20240174690A1, “ANNULATED 2-AMINO-3-CYANO THIOPHENES AND DERIVATIVES FOR THE TREATMENT OF CANCER” (BOEHRINGER INGELHEIM INTERNATIONAL GMBH, priority 2021, published 2024).

Experiment [1] concerns the target KRAS (WT)::SOS1 (Homo sapiens (Human), UniProt P01116, C118S). The experiment in a line: KRAS::SOS1 AlphaScreen binding assay, KRAS WT. An outline of the steps: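 Compounds (up to 100 μM, eleven fivefold dilutions in duplicate) were incubated 30 min with KRAS 1-169 (10 nM, or 7.5 nM for G12C), GST-SOS1 564-1049 (5 nM for G12D/G12C, 10 nM for others) and 10 μM GDP in PBS buffer with BSA and Tween. Donor/acceptor beads were then added for 60 min at room temperature, and IC50 came from a 4-parameter fit of the AlphaScreen signal.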

For experiment [2], the system named is GP2D cells. Nature of the experiment: GP2D proliferation assay (120 h) (colorectal cancer, G12D). Type of experiment: cell-based. The method, boiled down:
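500 cells/well in DMEM + GlutaMAX + 10% FCS, exposed to a logarithmic compound dose series (DMSO-normalized) for 120 h. Viability read by CellTiter-Glo luminescence as percent of DMSO control, with an untreated T0 read at dosing; IC50 from four-parameter non-linear regression.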

Experiment [3] deals with KRAS (G12V)::SOS1 (Homo sapiens (Human), UniProt P01116, C118S/G12V). The experiment in a line: KRAS::SOS1 AlphaScreen binding assay, KRAS G12V. An excerpt:
This assay can be used to examine the potency with which compounds according to the invention binding to (mutated) KRAS inhibit the protein-protein interaction between SOS1 and (mutated) KRAS e.g., KRAS WT, KRAS G12C, KRAS G12D, KRAS G12V, KRAS G13D. […] Low IC50 values in this assay setting are indicative of strong inhibition of protein-protein interaction between SOS1 and KRAS:
These assays measure the inhibitory effect of compounds on KRAS mutant protein-protein interactions using the Alpha Screen technology by Perkin Elmer.
The following (mutant) enzyme forms of KRAS and interacting proteins are used in these assays at the given concentrations: • KRAS (G12D) 1-169, N-terminal 6His-tag, C-terminal avi-tag (Xtal BioStructures, Inc.); final assay concentration 10 nM and SOS1 564-1049, N-terminal 229 GST-tag, TEV cleavage site (Viva Biotech Ltd); final assay concentration 5 nM; • KRAS (G12C) 1-169, N-terminal 6His-tag for purification, cleaved off, C-terminal avi-tag, biotinylated, mutations: C51S, C80L, C118S (in house); final assay concentration 7.5 nM and SOS1 564-1049, N-terminal 229 GST-tag, TEV cleavage site (Viva Biotech Ltd); final assay concentration 5 nM; • KRAS (G12V) 1-169, N-terminal 6His-tag for purification, cleaved off, C-terminal avi-tag, biotinylated, TEV cleavage site, mutation: C118S, GDP loaded (in house); final assay concentration 10 nM and SOS1 564-1049, N-terminal 229 GST-tag, TEV cleavage site (Viva Biotech Ltd); final assay concentration 10 nM; • KRAS (G13D) 1-169, N-terminal 6His-tag for purification, cleaved off, C-terminal avi-tag, biotinylated, TEV cleavage site, mutation: C118S, GDP loaded (in house); final assay concentration 10 nM and SOS1 564-1049, N-terminal 229 GST-tag, TEV cleavage site (Viva Biotech Ltd); final assay concentration 10 nM; • KRAS (WT) 1-169, N-terminal 6His-tag for purification, cleaved off, C-terminal avi-tag, biotinylated, TEV cleavage site, mutation: C118S, GDP loaded (in house); final assay concentration 10 nM and SOS1 564-1049, N-terminal 229 GST-tag, TEV cleavage site (Viva Biotech Ltd); final assay concentration 10 nM.
Test compounds dissolved in DMSO are dispensed onto assay plates (Proxiplate 384 PLUS, white, PerkinElmer; 6008289) using an Access Labcyte Workstation with the Labcyte Echo 55×. For the chosen highest assay concentration of 100 μM, 150 nL of compound solution are transferred from a 10 mM DMSO compound stock solution. A series of eleven fivefold dilutions per compound are transferred to the assay plate, compound dilutions are tested in duplicates. DMSO are added as backfill to a total volume of 150 nL.
The assays run on a fully automated robotic system in a darkened room below 100 Lux. To 150 nl of compound dilution 10 μl of a mix including KRAS mutant protein, SOS1 (final assay concentrations see above) and GDP nucleotide (Sigma G7127; final assay concentration 10 μM) in assay buffer (1×PBS, 0.1% BSA, 0.05% Tween 20) are added into columns 1-24.
After 30 minutes incubation time 5 μl of Alpha Screen bead mix in assay buffer are added into columns 1-23. Bead mix consists of AlphaLISA Glutathione Acceptor Beads (PerkinElmer, Cat No AL109) and AlphaScreen Streptavidin Donor Beads (PerkinElmer Cat No 6760002) in assay buffer at a final assay concentration of 10 μg/ml each.
Plates are kept at room temperature in a darkened incubator. After an additional 60 minutes incubation time the signal is measured in a PerkinElmer Envision HTS Multilabel Reader using the AlphaScreen specs from PerkinElmer.
Each plate contains up to 16 wells of a negative control depending on the dilution procedure (platewise or serial) (DMSO instead of test compound; with KRAS mutant::SOS1 GDP mix and bead mix; column 23) and 16 wells of a positive control (DMSO instead of test compound; with KRAS mutant::SOS1 GDP mix w/o bead mix; column 24).
As internal control known inhibitors of KRAS mutant::SOS1 interaction can be measured on each compound plate. […]

The structures appear in SMILES notation.

Sequence of KRAS (WT)::SOS1 (P01116 other isoform, or with tags, fused parts or gaps C118S): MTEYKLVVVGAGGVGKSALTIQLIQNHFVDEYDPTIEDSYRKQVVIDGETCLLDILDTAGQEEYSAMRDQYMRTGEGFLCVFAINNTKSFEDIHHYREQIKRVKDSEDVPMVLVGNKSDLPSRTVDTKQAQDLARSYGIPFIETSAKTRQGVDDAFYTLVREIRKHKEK
Sequence of KRAS (G12V)::SOS1 (P01116 other isoform, or with tags, fused parts or gaps G12V/C118S): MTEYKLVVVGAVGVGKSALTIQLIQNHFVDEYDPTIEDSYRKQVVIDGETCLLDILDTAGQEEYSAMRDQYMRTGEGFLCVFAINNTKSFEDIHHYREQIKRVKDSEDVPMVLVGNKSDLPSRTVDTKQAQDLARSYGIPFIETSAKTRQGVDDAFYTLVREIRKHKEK

As for `C[C@H](Oc1nc(-c2onc3c2CCC[C@@]32CCCc3sc(N)c(C#N)c32)cc(N2CCNC3(CC3)C2)n1)[C@@H]1CCCN1C` [I-2], the IC50 in experiment [1] was 42 nM. Consider `C[C@H](Oc1cc(N2CCNC3(CCC3)C2)nc(-c2onc3c2CCC[C@@]32CCCc3sc(N)c(C#N)c32)n1)[C@@H]1CCCN1C` [I-3], for which the IC50 in experiment [1] came out at 7 nM; in experiment [2], 2 nM. Take `C[C@H](Oc1cc(-c2ccn(C)n2)nc(-c2onc3c2CCC[C@@]32CCCc3sc(N)c(C#N)c32)n1)[C@@H]1CCCN1C` [I-21]: the IC50 in experiment [2] amounted to 546 nM.

Consider `CO[C@@H]1C[C@@H]([C@H](C)Oc2cc(-c3ccn(C)n3)nc(-c3onc4c3CCC[C@@]43CCCc4sc(N)c(C#N)c43)n2)N(C)C1` [I-23], for which, in experiment [2], the half-maximal inhibitory concentration (IC50) came out at 1170 nM. Regarding `Cc1ccc(-c2cc(O[C@@H](C)[C@@H]3CCCN3C)nc(-c3onc4c3CCC[C@@]43CCCc4sc(N)c(C#N)c43)n2)cn1` [I-28], the IC50 is 18 nM in experiment [1] and 3 nM in experiment [3].

Regarding `C[C@H](Oc1cc(-c2ccn(C[C@@H](C)O)n2)nc(-c2onc3c2CCC[C@@]32CCCc3sc(N)c(C#N)c32)n1)[C@@H]1CCCN1C` [I-30], the IC50 amounted to 3 nM in experiment [1] and 811 nM in experiment [2].

Consider `C[C@H](O)Cn1ccc(-c2cc(O[C@@H](C)[C@@H]3CCCN3C)nc(-c3onc4c3CCC[C@@]43CCCc4sc(N)c(C#N)c43)n2)n1` [I-31], for which inhibition in experiment [2] was half-maximal at 588 nM (IC50). Consider `C[C@H](Oc1cc(-c2ccn(C3COC3)n2)nc(-c2onc3c2CCC[C@@]32CCCc3sc(N)c(C#N)c32)n1)[C@@H]1CCCN1C` [I-34], for which the IC50 in experiment [1] came out at 4 nM; in experiment [2] it was 872 nM. On to `C[C@H](Oc1cc(N2CCN(C)C3(COC3)C2)nc(-c2onc3c2CCC[C@@]32CCCc3sc(N)c(C#N)c32)n1)[C@@H]1C[C@@H](F)CN1C` [I-37], for which the results for the IC50 in experiment [1] and in experiment [2] were 4 nM and 24 nM, respectively. The corresponding values for `C[C@H](Oc1cc(N2CCN(C)C3(CC3)C2)nc(-c2onc3c2CCC[C@@]32CCCc3sc(N)c(C#N)c32)n1)[C@@H]1CCCN1C` [I-41] are 5 nM and 8 nM. On to `C[C@H](Oc1cc(N2C[C@H](C)N(C)[C@@H](C)C2)nc(-c2onc3c2CCC[C@@]32CCCc3sc(N)c(C#N)c32)n1)[C@@H]1CCCN1C` [I-43], for which the IC50 is 143 nM in experiment [2] and 8 nM in experiment [3].

Consider `C[C@H](Oc1cc(N2CCNC3(CC3)C2)nc(-c2onc3c2CCC[C@@]32CCCc3sc(N)c(C#N)c32)n1)[C@@H]1C[C@@H](F)CN1C` [I-45], for which the IC50 was determined as 6 nM in experiment [1], 2 nM in experiment [2] and 8 nM in experiment [3]. In experiment [2], `CO[C@H]1CCN(C)[C@@H]1[C@H](C)Oc1cc(N2CCNC3(CC3)C2)nc(-c2onc3c2CCC[C@@]32CCCc3sc(N)c(C#N)c32)n1` [I-49] gave a half-inhibitory concentration (IC50) of 1 nM.

For `CO[C@@H]1C[C@@H]([C@H](C)Oc2cc(N3CCN(C)C4(CC4)C3)nc(-c3onc4c3CCC[C@@]43CCCc4sc(N)c(C#N)c43)n2)N(C)C1` [I-50], the IC50 in experiment [2] amounted to 10 nM. For the compound `C[C@H](Oc1cc(N2C[C@@H](N(C)C)[C@@H](O)C2)nc(-c2noc3c2CCC[C@@]32CCCc3sc(N)c(C#N)c32)n1)[C@@H]1CCCN1C` [II-10], half-maximal inhibition in experiment [2] (IC50) was put at 11 nM. Consider `C[C@H](Oc1cc(N2C[C@@H](N(C)C)[C@@H](F)C2)nc(-c2noc3c2CCC[C@@]32CCCc3sc(N)c(C#N)c32)n1)[C@@H]1CCCN1C` [II-11], for which the IC50 is 4 nM in experiment [1] and 78 nM in experiment [2]. The corresponding values for `C[C@H](Oc1cc(N2CC[C@H](N3CCCCC3)C2)nc(-c2noc3c2CCC[C@@]32CCCc3sc(N)c(C#N)c32)n1)[C@@H]1CCCN1C` [II-12] are 15 nM and 9 nM.

In the case of `C[C@H](Oc1cc(N2CC[C@H](N3CCCC3)C2)nc(-c2noc3c2CCC[C@@]32CCCc3sc(N)c(C#N)c32)n1)[C@@H]1CCCN1C` [II-14], the values for the IC50 in experiment [1] and in experiment [2] were 15 nM and 6 nM, respectively.

The compound `C[C@H]1CN(C)CCCN1c1cc(N2CC[C@H](N(C)C)C2)nc(-c2noc3c2CCC[C@@]32CCCc3sc(N)c(C#N)c32)n1` [II-16] came in with an IC50 in experiment [2] of 56 nM. `C[C@@H]1CN(c2cc(O[C@@H](C)[C@@H]3C[C@@H](F)CN3C)nc(-c3noc4c3CCC[C@@]43CCCc4sc(N)c(C#N)c43)n2)CC2(CC2)N1` [II-17]: the results for the IC50 in experiment [1] and in experiment [2] were 5 nM and 6 nM, respectively. The corresponding values for `C[C@H](Oc1cc(N2C[C@H](C)NC3(CC3)C2)nc(-c2noc3c2CCC[C@@]32CCCc3sc(N)c(C#N)c32)n1)[C@@H]1C[C@@H](F)CN1C` [II-18] are 6 nM and 2 nM.

As to `C[C@H](Oc1cc(-c2cnn(C)n2)nc(-c2noc3c2CCC[C@@]32CCCc3sc(N)c(C#N)c32)n1)[C@@H]1C[C@@H](F)CN1C` [II-28], in experiment [3], the IC50 was determined as 12 nM. As to `C[C@H](Oc1cc(N2CCNC(C)(C)C2)nc(-c2noc3c2CCC[C@@]32CCCc3sc(N)c(C#N)c32)n1)[C@@H]1CCCN1C` [II-32], the IC50 in experiment [2] is 5 nM. For the compound `CN[C@H]1CCN(c2cc(O[C@@H](C)[C@@H]3CCCN3C)nc(-c3noc4c3CCC[C@@]43CCCc4sc(N)c(C#N)c43)n2)C1` [II-35], the IC50 in experiment [1] was determined as 13 nM; in experiment [2], 31 nM.

In experiment [2], `C[C@H](Oc1cc([C@H]2CCN(C)C2)nc(-c2noc3c2CCC[C@@]32CCCc3sc(N)c(C#N)c32)n1)[C@@H]1CCCN1C` [II-38] showed an IC50 of 4 nM.

`C[C@H](Oc1cc(N2CCNC3(CCC3)C2)nc(-c2noc3c2CCC[C@@]32CCCc3sc(N)c(C#N)c32)n1)[C@@H]1CCCN1C` [II-40] registered an IC50 in experiment [2] of 5 nM. With `C[C@H](Oc1cc(-c2ccn([C@H]3CCCOC3)n2)nc(-c2noc3c2CCC[C@@]32CCCc3sc(N)c(C#N)c32)n1)[C@@H]1CCCN1C` [II-42], the IC50 in experiment [1] turned out to be 5 nM; in experiment [3], 2 nM. `C[C@H](Oc1nc(-c2noc3c2CCC[C@@]32CCCc3sc(N)c(C#N)c32)cc(N2C[C@H](C)N[C@@H](C)C2)n1)[C@@H]1CCCN1C` [II-46]: in experiment [1], the IC50 was 53 nM. In experiment [2], `C[C@H](Oc1cc(N2CC[C@@H](N(C)C)C2)nc(-c2noc3c2CCC[C@@]32CCCc3sc(N)c(C#N)c32)n1)[C@@H]1CCCN1C` [II-47] registered an IC50 of 105 nM. Consider `C[C@H](Oc1cc(N2CCC(N(C)C)CC2)nc(-c2noc3c2CCC[C@@]32CCCc3sc(N)c(C#N)c32)n1)[C@@H]1CCCN1C` [II-48], for which the IC50 turned out to be 34 nM in experiment [1] and 65 nM in experiment [2]. `[2H]C([2H])([2H])N1C[C@H](F)C[C@H]1[C@H](C)Oc1cc(N2CCNC3(CC3)C2)nc(-c2noc3c2CCC[C@@]32CCCc3sc(N)c(C#N)c32)n1` [II-208] returned an IC50 in experiment [1] of 4 nM.
